Test results reported in patent publication US20250361274A1, “PEPTIDE AND PEPTIDE-CONTAINING AGENT” (PEPTIDREAM INC., priority 2022, published 2025).
“Also recorded” adds a separate entry of the source. Numbered stars: 1 amine (or outer) side, 2 acyl side, 3 side chain; on linkers, the order of the positions; unused ones are H or OH. Bridge positions count the residues as written; N and C are the ends. Square brackets hold non-standard residues; d marks the D form. Peptide text beside a SMILES is read from it. ξ: configuration not given here. X2 = O=C(C[C@@H](Cc1ccc(-c2ccccc2)cc1)C(=O)[*:2])[C@@H]1CCCN1[*:1]; Phe(4-COOH) = N[C@@H](Cc1ccc(C(=O)O)cc1)C(=O)O; Bip = N[C@@H](Cc1ccc(-c2ccccc2)cc1)C(=O)O; Nle(6-COOH) = N[C@@H](CCCCC(=O)O)C(=O)O; X1 = N=C(CN)NCCC[C@H](N[*:1])C(=O)[*:2]; Ala(4-THP) = N[C@@H](CC1CCOCC1)C(=O)O; ξE = NC(CCC(=O)O)C(=O)O; βAla = NCCC(=O)O

Tests used:
Assay type in all cases: cell-based
BMP4 = molecular target: T1, BMP4 (Homo sapiens, UniProt P12644); experiment: BMP4 signal transduction inhibitory activity: SMAD1 phosphorylation by BMP4 stimulus, AlphaLISA SureFire, A549 cells
T1 sequence (P12644 293-408): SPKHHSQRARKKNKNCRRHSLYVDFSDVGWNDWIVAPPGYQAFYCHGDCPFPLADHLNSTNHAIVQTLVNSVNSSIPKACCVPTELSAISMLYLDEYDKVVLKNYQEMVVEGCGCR

BMP6 = molecular target: T2, BMP6 (Homo sapiens, UniProt P22004); experiment: BMP family signal transduction inhibition (SMAD1 phosphorylation), BMP6 stimulus
T2 sequence (P22004 375-513): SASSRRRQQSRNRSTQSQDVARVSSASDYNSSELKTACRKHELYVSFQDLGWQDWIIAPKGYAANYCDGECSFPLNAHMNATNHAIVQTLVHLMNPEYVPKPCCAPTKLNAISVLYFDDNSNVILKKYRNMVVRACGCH
Description: (§1) In the present Example, BMP4 signal transduction inhibition peptide No. 177, peptide No. 29986 (SEQ ID NO: 277 (Example 8)), and peptide SEQ ID NO: 417 (Example 6) synthesized in Example 2, Example 8, and Example 6 were verified in the same manner as in Example 13 in order to confirm presence or absence of signal transduction inhibitory activities obtained by BMPs 2, 5, 6, 9, 12, and 14 belonging to the respective BMP families.
(§2) Regarding the concentrations of the respective BMPs in the evaluation, 0.3 nM of BMP2, 2 nM of BMP5, 3 nM of BMP6, 10 nM of BMP9 and BMP12, and 0.6 nM of BMP14 were added, followed by application of stimulus.
(§3) Regarding No. 177, the concentrations of the peptides were as follows. Specifically, eight concentrations of the peptides were used at a common ratio of 1/3 starting from 10 nM (BMP2), starting from 200 nM (BMP5), starting from 100 nM (BMP6), starting from 1,000 nM (BMP9 and BMP12), and starting from 60 nM (BMP14). The evaluation was performed in the same manner as in Example 11 except for the above points. Note that recombinant Human Noggin Protein (R&D) as a positive control was used at the same concentration as the peptide.
(§4) Regarding the peptide SEQ ID NO: 277 (Example 8), the concentrations of the peptides were as follows. […]

BMP5 = molecular target: T3, BMP5 (Homo sapiens, UniProt P22003); experiment: BMP family signal transduction inhibition (SMAD1 phosphorylation), BMP5 stimulus
T3 sequence (P22003 317-454): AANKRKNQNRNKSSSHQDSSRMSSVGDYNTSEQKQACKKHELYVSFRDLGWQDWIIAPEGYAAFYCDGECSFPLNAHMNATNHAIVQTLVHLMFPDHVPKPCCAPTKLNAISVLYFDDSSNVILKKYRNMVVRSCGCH
Description: as §1, §2, §3, §4

BMP2 = molecular target: T4, BMP2 (Homo sapiens, UniProt P12643); experiment: BMP family signal transduction inhibition (SMAD1 phosphorylation), BMP2 stimulus
T4 sequence (P12643 283-396): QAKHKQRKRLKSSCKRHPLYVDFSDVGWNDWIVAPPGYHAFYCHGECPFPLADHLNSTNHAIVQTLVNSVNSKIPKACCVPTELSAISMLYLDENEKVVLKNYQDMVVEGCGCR
Description: as §1, §2, §3, §4

CC(C)[C@@H]1NC(=O)[C@H](CCCNC(=N)N)NC(=O)[C@H](CCCCC(=O)O)NC(=O)CSC[C@@H](C(=O)NCCC(=O)NC(CCC(=O)O)C(=O)O)NC(=O)[C@H](CO)NC(=O)[C@H](Cc2ccc(C(=O)O)cc2)NC(=O)[C@H](Cc2ccc(C(=O)O)cc2)NC(=O)[C@H](Cc2ccc(O)cc2)NC(=O)[C@H](Cc2ccc(-c3ccccc3)cc2)CC(=O)[C@@H]2CCCN2C(=O)[C@H](Cc2ccc(O)cc2)NC(=O)[C@@H]2CCCN2C(=O)[C@H](Cc2ccc(-c3ccccc3)cc2)NC(=O)[C@H](CCCNC(=N)CN)NC(=O)[C@H](CC(=O)O)NC(=O)[C@H](CC2CCOCC2)NC(=O)[C@H](Cc2ccc(C(=O)O)cc2)NC1=O (stereo partly drawn) [SEQ ID No. 177] ({CH2CO}-[Nle(6-COOH)]RV[Phe(4-COOH)][Ala(4-THP)]D[X1][Bip]PY[X2]Y[Phe(4-COOH)][Phe(4-COOH)]SC[βAla][ξE]-OH; thioether N-16) was tested, and the “BMP4 inhibitory activity (in words)” value (BMP4) was “same level of the BMP4 inhibitory activity as Noggin; also recorded: signal transduction inhibitory activities of BMP4 and BMP7”, the IC50 (BMP4; Table 2, eight concentrations, ratio 1/3 from 2 nM, A549 cells) was 0.053 nM and the “aLISA BMP4” value (BMP4; class of inhibition of SMAD1 phosphorylation by BMP4 stimulus, AlphaLISA, A549 cells) was “A (showed an inhibitory activity of 50% or more in a zone to which the peptide was added to in an amount of 0.2 nM)”. For the same compound, the “BMP6 signal transduction inhibitory activity (in words)” value (BMP6) was “signal transduction inhibitory activities of BMP2, BMP5, and BMP6”, the “BMP5 signal transduction inhibitory activity (in words)” value (BMP5) was “signal transduction inhibitory activities of BMP2, BMP5, and BMP6” and the “BMP2 signal transduction inhibitory activity (in words)” value (BMP2) was “signal transduction inhibitory activities of BMP2, BMP5, and BMP6”.
